Test system: Transport facilitation protein genes
Assay: DNA chip mRNA expression in yeast, transport facilitation protein genes (Table 5)
Type: cell-based, Saccharomyces cerevisiae S288C
In short: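 Ratios compare mRNA levels in stressed and control S. cerevisiae. Each toxicant was applied for two hours to log-phase cultures at 25° C. at a sub-lethal, growth-inhibiting level; fluorescent cDNA (Cy3- or Cy5-dUTP) was hybridized to a genome-wide yeast chip for over 12 h at 65° C.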

## CCCCCCCCCCCCc1ccc(S(=O)(=O)[O-])cc1.[Na+] [(17), sodium dodecylbenzosulfonate]
Yeast gene YBL030C
  The level of expressed mRNA in the presence of chemical substance/The level of expressed mRNA in the absence of chemical substance: 1.0
Yeast gene YBL099W
  The level of expressed mRNA in the presence of chemical substance/The level of expressed mRNA in the absence of chemical substance: 0.7
Yeast gene YBR052C
  The level of expressed mRNA in the presence of chemical substance/The level of expressed mRNA in the absence of chemical substance: 1.8
Yeast gene YBR068C
  The level of expressed mRNA in the presence of chemical substance/The level of expressed mRNA in the absence of chemical substance: 1.1
Yeast gene YBR127C
  The level of expressed mRNA in the presence of chemical substance/The level of expressed mRNA in the absence of chemical substance: 0.8
Yeast gene YBR132C
  The level of expressed mRNA in the presence of chemical substance/The level of expressed mRNA in the absence of chemical substance: 1.1
Yeast gene YBR207W
  The level of expressed mRNA in the presence of chemical substance/The level of expressed mRNA in the absence of chemical substance: 1.2
Yeast gene YBR293W
  The level of expressed mRNA in the presence of chemical substance/The level of expressed mRNA in the absence of chemical substance: 1.0
Yeast gene YBR294W
  The level of expressed mRNA in the presence of chemical substance/The level of expressed mRNA in the absence of chemical substance: 1.0
Yeast gene YBR295W
  The level of expressed mRNA in the presence of chemical substance/The level of expressed mRNA in the absence of chemical substance: 1.3
Yeast gene YBR298C
  The level of expressed mRNA in the presence of chemical substance/The level of expressed mRNA in the absence of chemical substance: 0.9
Yeast gene YCL025C
  The level of expressed mRNA in the presence of chemical substance/The level of expressed mRNA in the absence of chemical substance: 0.6
Yeast gene YCL038C
  The level of expressed mRNA in the presence of chemical substance/The level of expressed mRNA in the absence of chemical substance: 1.4
Yeast gene YCR024C-A
  The level of expressed mRNA in the presence of chemical substance/The level of expressed mRNA in the absence of chemical substance: 0.9
Yeast gene YCR037C
  The level of expressed mRNA in the presence of chemical substance/The level of expressed mRNA in the absence of chemical substance: 1.4
Yeast gene YCR098C
  The level of expressed mRNA in the presence of chemical substance/The level of expressed mRNA in the absence of chemical substance: 1.7
Yeast gene YDL128W
  The level of expressed mRNA in the presence of chemical substance/The level of expressed mRNA in the absence of chemical substance: 0.9
Yeast gene YDL198C
  The level of expressed mRNA in the presence of chemical substance/The level of expressed mRNA in the absence of chemical substance: 1.5
Yeast gene YDL210W
  The level of expressed mRNA in the presence of chemical substance/The level of expressed mRNA in the absence of chemical substance: 1.1
Yeast gene YDL245C
  The level of expressed mRNA in the presence of chemical substance/The level of expressed mRNA in the absence of chemical substance: 1.0
Yeast gene YDR038C
  The level of expressed mRNA in the presence of chemical substance/The level of expressed mRNA in the absence of chemical substance: 1.3
Yeast gene YDR039C
  The level of expressed mRNA in the presence of chemical substance/The level of expressed mRNA in the absence of chemical substance: 1.1
Yeast gene YDR086C
  The level of expressed mRNA in the presence of chemical substance/The level of expressed mRNA in the absence of chemical substance: 1.4
Yeast gene YDR270W
  The level of expressed mRNA in the presence of chemical substance/The level of expressed mRNA in the absence of chemical substance: 0.9
Yeast gene YDR298C
  The level of expressed mRNA in the presence of chemical substance/The level of expressed mRNA in the absence of chemical substance: 1.1
Yeast gene YDR342C
  The level of expressed mRNA in the presence of chemical substance/The level of expressed mRNA in the absence of chemical substance: 1.0
Yeast gene YDR343C
  The level of expressed mRNA in the presence of chemical substance/The level of expressed mRNA in the absence of chemical substance: 1.1
Yeast gene YDR345C
  The level of expressed mRNA in the presence of chemical substance/The level of expressed mRNA in the absence of chemical substance: 1.3
Yeast gene YDR387C
  The level of expressed mRNA in the presence of chemical substance/The level of expressed mRNA in the absence of chemical substance: 1.2
Yeast gene YDR497C
  The level of expressed mRNA in the presence of chemical substance/The level of expressed mRNA in the absence of chemical substance: 1.6
Yeast gene YEL027W
  The level of expressed mRNA in the presence of chemical substance/The level of expressed mRNA in the absence of chemical substance: 1.0
Yeast gene YEL063C
  The level of expressed mRNA in the presence of chemical substance/The level of expressed mRNA in the absence of chemical substance: 0.7
Yeast gene YEL065W
  The level of expressed mRNA in the presence of chemical substance/The level of expressed mRNA in the absence of chemical substance: 0.7
Yeast gene YER053C
  The level of expressed mRNA in the presence of chemical substance/The level of expressed mRNA in the absence of chemical substance: 1.2
Yeast gene YFL011W
  The level of expressed mRNA in the presence of chemical substance/The level of expressed mRNA in the absence of chemical substance: 0.8
Yeast gene YFL041W
  The level of expressed mRNA in the presence of chemical substance/The level of expressed mRNA in the absence of chemical substance: 1.1
Yeast gene YFL050C
  The level of expressed mRNA in the presence of chemical substance/The level of expressed mRNA in the absence of chemical substance: 0.8
Yeast gene YFL054C
  The level of expressed mRNA in the presence of chemical substance/The level of expressed mRNA in the absence of chemical substance: 1.7
Yeast gene YGL006W
  The level of expressed mRNA in the presence of chemical substance/The level of expressed mRNA in the absence of chemical substance: 2.4
Yeast gene YGL008C
  The level of expressed mRNA in the presence of chemical substance/The level of expressed mRNA in the absence of chemical substance: 1.1
Yeast gene YGL104C
  The level of expressed mRNA in the presence of chemical substance/The level of expressed mRNA in the absence of chemical substance: 1.3
Yeast gene YGL167C
  The level of expressed mRNA in the presence of chemical substance/The level of expressed mRNA in the absence of chemical substance: 1.4
Yeast gene YGL255W
  The level of expressed mRNA in the presence of chemical substance/The level of expressed mRNA in the absence of chemical substance: 0.6
Yeast gene YGR055W
  The level of expressed mRNA in the presence of chemical substance/The level of expressed mRNA in the absence of chemical substance: 0.7
Yeast gene YGR065C
  The level of expressed mRNA in the presence of chemical substance/The level of expressed mRNA in the absence of chemical substance: 0.7
Yeast gene YGR082W
  The level of expressed mRNA in the presence of chemical substance/The level of expressed mRNA in the absence of chemical substance: 0.9
Yeast gene YGR096W
  The level of expressed mRNA in the presence of chemical substance/The level of expressed mRNA in the absence of chemical substance: 0.8
Yeast gene YGR138C
  The level of expressed mRNA in the presence of chemical substance/The level of expressed mRNA in the absence of chemical substance: 0.7
Yeast gene YGR191W
  The level of expressed mRNA in the presence of chemical substance/The level of expressed mRNA in the absence of chemical substance: 0.8
Yeast gene YGR197C
  The level of expressed mRNA in the presence of chemical substance/The level of expressed mRNA in the absence of chemical substance: 1.7

Source: patent publication US8192962B2, “Processes for detecting toxic substances” (Daikin Industries, Ltd., priority 2001, dated 2012)
